Numbers after ± are expanded uncertainties.
Experiments:
[1] = Liquid, Vibrating tube method
[2] = xn = mol fraction of the nth substance listed; details: Liquid; for mass density: Vibrating tube method; for viscosity: 325.2 K, Flow viscometer

Question: With CCCCCCCCCC [decane] as the molecule, how does the mass density ([1]; 323.2 K, 100 kPa) read?
Answer: The mass density was 707 ± 0.3 kg/m3.

Question: What about the mass density ([1]; 323.2 K, 1000 kPa) of the same molecule?
Answer: The mass density was 707.9 ± 0.4 kg/m3.

Question: And the mass density ([1]; 323.2 K, 2000 kPa)?
Answer: Its mass density is 708.8 ± 0.4 kg/m3.

Question: And the mass density ([1]; 323.2 K, 3000 kPa)?
Answer: Its mass density is 709.7 ± 0.4 kg/m3.

Question: And the mass density ([1]; 323.2 K, 4000 kPa)?
Answer: Its mass density is 710.6 ± 0.4 kg/m3.

Question: What about the mass density ([1]; 323.2 K, 5000 kPa) of the same molecule?
Answer: The mass density was 711.5 ± 0.4 kg/m3.

Question: What about the mass density ([1]; 323.2 K, 6000 kPa) of the same molecule?
Answer: Its mass density is 712.4 ± 0.4 kg/m3.

Question: And the mass density ([1]; 323.2 K, 7000 kPa)?
Answer: The mass density was 713.3 ± 0.4 kg/m3.

Question: What about the mass density ([1]; 323.2 K, 8000 kPa) of the same molecule?
Answer: The mass density was 714.1 ± 0.4 kg/m3.

Question: What about the mass density ([1]; 323.2 K, 9000 kPa) of the same molecule?
Answer: Its mass density is 715 ± 0.4 kg/m3.

Question: What about the mass density ([1]; 323.2 K, 10000 kPa) of the same molecule?
Answer: Its mass density is 715.9 ± 0.4 kg/m3.

Question: For CCCCCCCCCC [decane] + CCCCCCCCCCCCCCCCCC, which mass density ([2]; 323.2 K, 100 kPa, x1 = 1) is on record?
Answer: The mass density was 707 ± 0.3 kg/m3.

Question: And the mass density ([2]; 323.2 K, 1000 kPa, x1 = 1)?
Answer: The mass density was 707.9 ± 0.4 kg/m3.

Question: And the mass density ([2]; 323.2 K, 2000 kPa, x1 = 1)?
Answer: The mass density was 708.8 ± 0.4 kg/m3.

Question: What about the mass density ([2]; 323.2 K, 3000 kPa, x1 = 1) of the same molecule?
Answer: Its mass density is 709.7 ± 0.4 kg/m3.

Question: And the mass density ([2]; 323.2 K, 4000 kPa, x1 = 1)?
Answer: The mass density was 710.6 ± 0.4 kg/m3.

Question: And the mass density ([2]; 323.2 K, 5000 kPa, x1 = 1)?
Answer: The mass density was 711.5 ± 0.4 kg/m3.

Question: And the mass density ([2]; 323.2 K, 6000 kPa, x1 = 1)?
Answer: The mass density was 712.4 ± 0.4 kg/m3.

Question: What about the mass density ([2]; 323.2 K, 7000 kPa, x1 = 1) of the same molecule?
Answer: Its mass density is 713.3 ± 0.4 kg/m3.

Question: And the mass density ([2]; 323.2 K, 8000 kPa, x1 = 1)?
Answer: The mass density was 714.1 ± 0.4 kg/m3.

Question: And the mass density ([2]; 323.2 K, 9000 kPa, x1 = 1)?
Answer: The mass density was 715 ± 0.4 kg/m3.

Question: What about the mass density ([2]; 323.2 K, 10000 kPa, x1 = 1) of the same molecule?
Answer: Its mass density is 715.9 ± 0.4 kg/m3.

Question: Which results are given for CCCCCCCCCCCCCCCCCC [octadecane]?
Answer: mass density ([1]; 323 K, 100 kPa): 761.2 ± 0.4 kg/m3; mass density ([1]; 323 K, 1000 kPa): 761.9 ± 0.4 kg/m3; mass density ([1]; 323 K, 2000 kPa): 762.7 ± 0.4 kg/m3; mass density ([1]; 323 K, 3000 kPa): 763.3 ± 0.4 kg/m3; mass density ([1]; 323 K, 4000 kPa): 764 ± 0.4 kg/m3; mass density ([1]; 323 K, 5000 kPa): 764.8 ± 0.4 kg/m3; mass density ([1]; 323 K, 6000 kPa): 765.4 ± 0.4 kg/m3; mass density ([1]; 323 K, 7000 kPa): 766 ± 0.4 kg/m3; mass density ([1]; 323 K, 8000 kPa): 766.7 ± 0.4 kg/m3; mass density ([1]; 323 K, 9000 kPa): 767.5 ± 0.4 kg/m3; mass density ([1]; 323 K, 10000 kPa): 768.1 ± 0.4 kg/m3

Question: Which results are given for CCCCCCCCCCCCCCCCCC [octadecane] + CCCCCCCCCC?
Answer: mass density ([2]; 323 K, 100 kPa, x2 = 0): 761.2 ± 0.4 kg/m3; mass density ([2]; 323 K, 100 kPa, x2 = 0.75): 726.3 ± 0.4 kg/m3; mass density ([2]; 323 K, 1000 kPa, x2 = 0): 761.9 ± 0.4 kg/m3; mass density ([2]; 323 K, 1000 kPa, x2 = 0.75): 727.1 ± 0.4 kg/m3; mass density ([2]; 323 K, 2000 kPa, x2 = 0): 762.7 ± 0.4 kg/m3; mass density ([2]; 323 K, 2000 kPa, x2 = 0.75): 728 ± 0.4 kg/m3; mass density ([2]; 323 K, 3000 kPa, x2 = 0): 763.3 ± 0.4 kg/m3; mass density ([2]; 323 K, 3000 kPa, x2 = 0.75): 728.8 ± 0.4 kg/m3; mass density ([2]; 323 K, 4000 kPa, x2 = 0): 764 ± 0.4 kg/m3; mass density ([2]; 323 K, 4000 kPa, x2 = 0.75): 729.6 ± 0.4 kg/m3; mass density ([2]; 323 K, 5000 kPa, x2 = 0): 764.8 ± 0.4 kg/m3; mass density ([2]; 323 K, 5000 kPa, x2 = 0.75): 730.4 ± 0.4 kg/m3; mass density ([2]; 323 K, 6000 kPa, x2 = 0): 765.4 ± 0.4 kg/m3; mass density ([2]; 323 K, 6000 kPa, x2 = 0.75): 731.2 ± 0.4 kg/m3; mass density ([2]; 323 K, 7000 kPa, x2 = 0): 766 ± 0.4 kg/m3; mass density ([2]; 323 K, 7000 kPa, x2 = 0.75): 732.1 ± 0.4 kg/m3; mass density ([2]; 323 K, 8000 kPa, x2 = 0): 766.7 ± 0.4 kg/m3; mass density ([2]; 323 K, 8000 kPa, x2 = 0.75): 732.9 ± 0.4 kg/m3; mass density ([2]; 323 K, 9000 kPa, x2 = 0): 767.5 ± 0.4 kg/m3; mass density ([2]; 323 K, 9000 kPa, x2 = 0.75): 733.7 ± 0.4 kg/m3; mass density ([2]; 323 K, 10000 kPa, x2 = 0): 768.1 ± 0.4 kg/m3; mass density ([2]; 323 K, 10000 kPa, x2 = 0.75): 734.5 ± 0.4 kg/m3; mass density ([2]; 323.1 K, 100 kPa, x2 = 0.25): 752.2 ± 0.4 kg/m3; mass density ([2]; 323.1 K, 100 kPa, x2 = 0.5): 740.8 ± 0.4 kg/m3; mass density ([2]; 323.1 K, 1000 kPa, x2 = 0.25): 752.9 ± 0.4 kg/m3; mass density ([2]; 323.1 K, 1000 kPa, x2 = 0.5): 741.6 ± 0.4 kg/m3; mass density ([2]; 323.1 K, 2000 kPa, x2 = 0.25): 753.7 ± 0.4 kg/m3; mass density ([2]; 323.1 K, 2000 kPa, x2 = 0.5): 742.4 ± 0.4 kg/m3; mass density ([2]; 323.1 K, 3000 kPa, x2 = 0.25): 754.5 ± 0.4 kg/m3; mass density ([2]; 323.1 K, 3000 kPa, x2 = 0.5): 743.1 ± 0.4 kg/m3; mass density ([2]; 323.1 K, 4000 kPa, x2 = 0.25): 755.2 ± 0.4 kg/m3; mass density ([2]; 323.1 K, 4000 kPa, x2 = 0.5): 743.9 ± 0.4 kg/m3; mass density ([2]; 323.1 K, 5000 kPa, x2 = 0.25): 755.9 ± 0.4 kg/m3; mass density ([2]; 323.1 K, 5000 kPa, x2 = 0.5): 744.7 ± 0.4 kg/m3; mass density ([2]; 323.1 K, 6000 kPa, x2 = 0.25): 756.7 ± 0.4 kg/m3; mass density ([2]; 323.1 K, 6000 kPa, x2 = 0.5): 745.5 ± 0.4 kg/m3; mass density ([2]; 323.1 K, 7000 kPa, x2 = 0.25): 757.3 ± 0.4 kg/m3; mass density ([2]; 323.1 K, 7000 kPa, x2 = 0.5): 746.2 ± 0.4 kg/m3; mass density ([2]; 323.1 K, 8000 kPa, x2 = 0.25): 758.1 ± 0.4 kg/m3; mass density ([2]; 323.1 K, 8000 kPa, x2 = 0.5): 747 ± 0.4 kg/m3; mass density ([2]; 323.1 K, 9000 kPa, x2 = 0.25): 758.8 ± 0.4 kg/m3; mass density ([2]; 323.1 K, 9000 kPa, x2 = 0.5): 747.8 ± 0.4 kg/m3; mass density ([2]; 323.1 K, 10000 kPa, x2 = 0.25): 759.6 ± 0.4 kg/m3; mass density ([2]; 323.1 K, 10000 kPa, x2 = 0.5): 748.6 ± 0.4 kg/m3; viscosity ([2]; 100 kPa, x1 = 0.25): 0.883 ± 0.07 mPa·s; viscosity ([2]; 100 kPa, x1 = 0.5): 1.31 ± 0.12 mPa·s; viscosity ([2]; 100 kPa, x1 = 0.75): 1.702 ± 0.14 mPa·s

Reference: the NIST ThermoML archive (doi:10.1021/je4000394)
